Test results: patent US6653354B2, “NMDA antagonist comprising xenon” (priority 1999, dated 2003)

Key:
rhesus monkeys = test: MAC in rhesus monkeys; format: in vivo; details: 37° C.
Experimental: The gaseous concentration of xenon which prevents a response to a painful stimulus (i.e. MAC) appears to vary among species, being 71% atm in humans (Cullen SC et al, Anesthesiology 1969, 31:305-309), 98% atm in rhesus monkeys (Whitehurst S L et al, J. Neurosurg. Anesthesiol. 1994, 6:275-279) and 161% atm in rats (Koblin D D et al, Anesth. Analg. 1998, 87:419-424). When these values are converted to free aqueous concentrations at 37° C. (Franks N P et al, Br. J. Anaesth. 1993, 71:65-76; Franks N P et al, Anesthesiology, 1996, 84:716-720) using an Ostwald water/gas partition coefficient of 0.0887 (Weathersby P K et al, Undersea Biomed. Res. 1980, 7:277-296), the values obtained are 2.5 mM, 3.4 mM and 5.6 mM for humans, monkeys and rats respectively, with the average value being 3.8 mM. For the experiments described herein, performed at room temperature, the concentration of xenon present in the standard test solution was 3.4 mM. […] This is illustrated with representative traces in FIG. 2.

GABAA receptors = test: Currents evoked by exogenously applied GABA in voltage-clamped cultured hippocampal neurons; format: cell-based; details: 100% xenon; cultured rat hippocampal neurons

`[Xe]` [xenon] was tested, and the “MAC converted to free aqueous concentration” value (rhesus monkeys) was 3.4 mM and the “effect on currents activated by 3 μM GABA” value (GABAA receptors) was “not significantly affected”.
